Reference: paper PMC12723449, “From Pharmacophore to Warhead: NAD^+‐Targeting Triazoles as Mechanism‐Based Sirtuin Inhibitors” (Angewandte Chemie (International Ed. in English), 2025)
Like-named read-outs stand apart in the source and are kept apart here.

Assays:
SIRT2 [1] = target: T1, SIRT2 (Homo sapiens, UniProt Q8IXJ6); assay: Differential scanning fluorimetry (DSF) / fluorescence thermal shift assay; format: binding
T1 construct: For assay experiments, strep-tagged human SIRT1134−747 and SIRT256-356 were expressed and purified as previously; Strep-tag; made in house; host or cells: E. coli BL21 Star (DE3)
T1 sequence (Q8IXJ6 56-356 limits assumed): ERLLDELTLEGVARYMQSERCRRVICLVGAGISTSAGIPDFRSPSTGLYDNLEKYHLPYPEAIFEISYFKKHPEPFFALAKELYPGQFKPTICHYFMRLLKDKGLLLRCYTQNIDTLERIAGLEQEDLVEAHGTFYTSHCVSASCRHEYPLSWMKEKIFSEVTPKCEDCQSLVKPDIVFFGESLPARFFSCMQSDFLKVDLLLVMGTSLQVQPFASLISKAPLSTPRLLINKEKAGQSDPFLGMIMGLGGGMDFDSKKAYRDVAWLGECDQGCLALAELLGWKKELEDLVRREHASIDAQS
Description: Differential scanning fluorimetry (DSF) assay
Differential scanning fluorimetry assays were performed in white 96-well plates (Hard-Shell PCR Plates, BioRad, USA) with a total volume of 20 µL per well and a final DMSO concentration of 5% (v/v), following a published
A solution of 10 µL SIRT2 (final concentration of 6.0 µM) and SYPRO Orange (5x, Sigma-Aldrich, Germany) in assay buffer (25 mM Tris-HCl, 150 mM NaCl, 1 mM DTT, pH 8.0) was mixed with 10 µL of compound and incubated at 25 °C and 350 rpm for 5 min. Where applicable, NAD+ was added to a final concentration of 2.5 mM. Fluorescence
(C1000 Touch™ Thermal Cycler, CFX96™ Real-Time System, BioRad, USA). Melting temperatures were determined using GraphPad Prism, following a published procedure.[6]

[2] = target: T2, NanoLuc–SIRT2 fusion protein in HEK293T cells (Homo sapiens, UniProt Q8IXJ6); assay: NanoBRET cellular target engagement assay; format: cell-based; details: for Ki: read-out: NanoBRET K i (Cheng–Prusoff)
T2 construct: transfected HEK293T cells expressing the NanoLuc-tagged SIRT250-356 fusion protein were used instead of transient; expressed in transfected cells; host or cells: HEK293T (stably transfected)
T2 sequence (Q8IXJ6 50-356 limits assumed): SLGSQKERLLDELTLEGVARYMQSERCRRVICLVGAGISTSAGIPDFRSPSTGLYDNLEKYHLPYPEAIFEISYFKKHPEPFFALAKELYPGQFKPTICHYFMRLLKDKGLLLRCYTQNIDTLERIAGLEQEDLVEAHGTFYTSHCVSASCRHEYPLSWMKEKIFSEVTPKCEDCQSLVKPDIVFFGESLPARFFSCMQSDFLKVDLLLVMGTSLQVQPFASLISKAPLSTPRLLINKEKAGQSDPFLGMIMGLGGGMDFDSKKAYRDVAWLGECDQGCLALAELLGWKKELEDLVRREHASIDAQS
Description: The NanoBRET target engagement assay was performed as previously described[2] with the modification that stably transfected HEK293T cells expressing the NanoLuc-tagged SIRT250-356 fusion protein were used instead of transient transfection. Briefly, HEK293T-NLuc- SIRT250-356 cells were cultured under standard conditions (37 °C, 5% CO2) in DMEM supplemented with 10% fetal bovine serum, 2 mM glutamine, and 300 µg/mL hygromycin as a selection marker. For the assay, cells were trypsinized, resuspended in Opti-MEM® reduced serum medium, and adjusted to a concentration of 2 × 10^5 cells per mL. […]
µM was used. Serially diluted inhibitor and tracer were added to the cell suspension, and 100 μL were seeded into 96-well white, sterile, nonbinding surface plates. To evaluate the cellular permeability of LTDi-1 (6), the non-ionic detergent digitonin (50 µg/ml) was added. Plates were incubated at 37 °C with 5% CO2 for 2 h. For BRET measurements, NanoBRET NanoGlo Substrate (Promega cat. #N1571) was added to the wells according to the […]
All measurements were performed using the 2102 EnVisionTM Multilabel Reader (PerkinElmer), equipped with a 460 nm filter (donor) and a 615 nm filter (acceptor). The BRET ratio was calculated as the ratio of acceptor to donor signal, and data were normalized to vehicle-treated controls. Apparent intracellular binding affinities (EC50 values) were determined by fitting dose-response curves using nonlinear regression analysis in GraphPad Prism. […]

SIRT2 [3] = target: T1, SIRT2; assay: Fluorescence-based deacetylation assay (ZMAL-assay), SIRT2; format: biochemical; details: 37 °C, assay limit 0.10 µM, read-out: SIRT2 (deac.) IC50
Description: Determination of IC50 values (SIRT1, SIRT2, SIRT3) via fluorescence-based deacetylation assay […]
The fluorescence-based deacetylation assay was conducted in a black 384-well microplate (OptiPlate-384 F, PerkinElmer) with a total volume of 30 µL per well and a final DMSO concentration of 2% (v/v) according to a […]
concentration of 100 nM) in assay buffer (50 mM Tris, 137 mM NaCl, 2.7 mM KCl, 1m MgCl2, 0.01% Tween, 0.05 mg/mL BSA, 0.2 mM TCEP, pH 8.0), 5 µL of substrate (ZMAL, final concentration of 10.5 µM), 5 µL of NAD+ (final concentration of 500 µM) and 10 µL of inhibitor solution (final concentration of 30 µM – 0.014 µM, serial 1:3 dilutions) was incubated at 37 °C and 300 rpm for 4 h. A solution of trypsin (final concentration of 0.5 mg/mL) and nicotinamide (final concentration of 4 mM) was added and incubated at 37 °C and 300 rpm for 30 min to stop the reaction. Samples with 2% (v/v) DMSO instead of inhibitor were prepared as a positive control, and samples with 2% (v/v) DMSO instead of SIRT enzyme were prepared as a negative control. Fluorescence intensity was measured with a microplate reader (λEx = 380-10 nm, λEm = 460 nm, BMG POLARstar Optima, BMG Labtech, Germany). IC50 values were then determined using a nonlinear regression fit with Origin Pro 2019 software. All experiments were performed at least in duplicates. […]

[4] = 2 µM tracer, co-treatment with digitonin

EC50 ([2]; without digitonin) [nM]	IC50 (SIRT2 [3]) [nM]	ΔTm at 10 µM (SIRT2 [1]; 10 µM compound, with NAD+ addition) [°C]	EC50 [2, 4] [nM]	Ki [2, 4] [nM]	EC50 ([2]; 2 µM tracer, without digitonin) [nM]	Ki ([2]; 2 µM tracer, without digitonin) [nM]	Compound	NAD+-dependent thermal stabilization of SIRT2 (SIRT2 [1]; upon NAD+ addition)
2700 ± 100	–	–	–	–	–	–	COCCn1cc(COc2cccc(Cc3cnc(NC(=O)CSc4nc(C)cc(C)n4)s3)c2)nn1 [Compound 1, reference compound]	pronounced NAD^+‐dependent thermal stabilization
–	< 100	16.3 ± 0.1	160 ± 20	18 ± 2	340 ± 90	38 ± 10	CCCCCCCCCCCCc1cn(CCCC[C@H](NC(=O)[C@H](CCCCN)NC(=O)[C@@H]2CCCN2C(=O)[C@H](CC(C)C)NC(=O)[C@H](C)NC(=O)[C@H](CCC(=O)O)NC(C)=O)C(=O)N[C@H](C(=O)NCC(=O)NCC(N)=O)[C@@H](C)O)nn1 [Compound 6]	–
–	7800 ± 2100	–	–	–	–	–	Cc1cc(C)nc(SCC(=O)Nc2ncc(Cc3cccc(OCc4c[nH]nn4)c3)s2)n1 [Compound 7]	–
